{"source": "patent US20230416765A1", "about": "“AGROBACTERIUM RHIZOGENES AND METHODS OF TRANSFORMING CELLS” (priority 2020, published 2023)", "tested_on": "MSU440", "assay": "Antibiotic susceptibility test on MSU440", "type": "cell-based, Agrobacterium rhizogenes", "source_text": "The development of a disarmed strain of MSU440 relied on a selectable marker (an antibiotic resistance gene or the counter-selectable marker sacB). Antibiotic susceptibility test on MSU440 were formed with the antibiotics outlined in Table 5.", "key": {"[1]": {"settings": "MSU440 response to antibiotic at 50 ug/mL"}}}
{"compound": "CC1(C)S[C@@H]2[C@H](NC(=O)C(C(=O)O)c3ccccc3)C(=O)N2[C@H]1C(=O)O", "note": "(some centres unmarked) [carbenicillin]", "values": [{"measurement": "Resistant or susceptible", "setting": "MSU440 response to antibiotic at 100 ug/mL", "result": "susceptible"}]}
{"compound": "O=C(N[C@H](CO)[C@H](O)c1ccc([N+](=O)[O-])cc1)C(Cl)Cl", "note": "[chloramphenicol]", "values": [{"measurement": "Resistant or susceptible", "setting": "MSU440 response to antibiotic at 30 ug/mL", "result": "resistant"}]}
{"compound": "CN[C@@H]1[C@H](O)[C@H](NC)[C@H]2O[C@@]3(O)C(=O)C[C@@H](C)O[C@H]3O[C@@H]2[C@H]1O", "note": "[spectinomycin]", "values": [{"measurement": "Resistant or susceptible", "setting": "[1]", "result": "resistant"}]}
{"compound": "[H]/N=C(/N)N[C@H]1[C@H](O)[C@@H](O)[C@H](O[C@@H]2O[C@@H](C)[C@](O)(C=O)[C@H]2O[C@@H]2O[C@@H](CO)[C@H](O)[C@@H](O)[C@@H]2NC)[C@@H](N/C(N)=N\\[H])[C@@H]1O", "note": "[streptomycin]", "values": [{"measurement": "Resistant or susceptible", "setting": "[1]", "result": "resistant"}]}
{"compound": "gentamicin", "values": [{"measurement": "Resistant or susceptible", "setting": "MSU440 response to antibiotic at 35 ug/mL", "result": "susceptible"}]}
